Assay results taken from patent EP3807270B1, “NOVEL HETEROARYL HETEROCYCLYL COMPOUNDS FOR THE TREATMENT OF AUTOIMMUNE DISEASE” (F. Hoffmann-La Roche AG, priority 2018, dated 2019).

What follows are compounds tested against T1, human TLR8 (Homo sapiens, UniProt Q9NR97) (assay: HEK293-Blue-hTLR-8 cells assay (SEAP reporter, R848 stimulation)). Details: HEK293-Blue-hTLR8 cells, R848, 20 hrs; read-out: HEK/hTLR8 IC50.
T1 construct: host or cells: HEK293 (HEK-Blue)
T1 sequence (Q9NR97 27-1041): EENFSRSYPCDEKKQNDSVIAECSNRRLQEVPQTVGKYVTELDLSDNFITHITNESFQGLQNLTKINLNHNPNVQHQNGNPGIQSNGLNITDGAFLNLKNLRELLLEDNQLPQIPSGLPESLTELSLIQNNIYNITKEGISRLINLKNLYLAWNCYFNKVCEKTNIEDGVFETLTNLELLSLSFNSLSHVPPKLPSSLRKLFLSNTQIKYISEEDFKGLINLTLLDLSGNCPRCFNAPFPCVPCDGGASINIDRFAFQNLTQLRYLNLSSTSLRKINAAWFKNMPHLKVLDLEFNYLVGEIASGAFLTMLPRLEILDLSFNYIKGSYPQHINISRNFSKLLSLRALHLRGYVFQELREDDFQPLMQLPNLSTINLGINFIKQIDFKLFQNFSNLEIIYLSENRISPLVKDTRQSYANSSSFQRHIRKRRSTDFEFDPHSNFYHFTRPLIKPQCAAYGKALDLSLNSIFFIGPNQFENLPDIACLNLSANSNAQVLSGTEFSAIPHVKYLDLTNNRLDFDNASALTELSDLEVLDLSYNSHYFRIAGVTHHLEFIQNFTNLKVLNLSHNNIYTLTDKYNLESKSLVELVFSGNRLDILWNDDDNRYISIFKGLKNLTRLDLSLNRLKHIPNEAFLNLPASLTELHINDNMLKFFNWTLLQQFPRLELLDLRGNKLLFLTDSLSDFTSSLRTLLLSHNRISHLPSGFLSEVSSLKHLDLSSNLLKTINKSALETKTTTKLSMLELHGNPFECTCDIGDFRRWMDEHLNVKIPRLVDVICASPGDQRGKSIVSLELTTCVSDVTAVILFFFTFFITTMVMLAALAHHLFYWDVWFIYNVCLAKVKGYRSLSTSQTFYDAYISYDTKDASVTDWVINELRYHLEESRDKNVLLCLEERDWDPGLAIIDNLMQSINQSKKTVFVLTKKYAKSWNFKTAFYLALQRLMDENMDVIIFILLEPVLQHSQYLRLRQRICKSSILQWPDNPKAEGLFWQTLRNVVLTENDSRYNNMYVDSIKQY
Format: cell-based
Description: A stable HEK293-Blue-hTLR-8 cell line was purchased from InvivoGen (Cat.#: hkb-htlr8, San Diego, California, USA). These cells were originally designed for studying the stimulation of human TLR8 by monitoring the activation of NF-κB. A SEAP (secreted embryonic alkaline phosphatase) reporter gene was placed under the control of the IFN-β minimal promoter fused to five NF-κB and AP-1-binding sites. The SEAP was induced by activating NF-κB and AP-1 via stimulating HEK-Blue hTLR8 cells with TLR8 ligands. Therefore, the reporter expression was declined by TLR8 antagonist under the stimulation of a ligand, such as R848, for incubation of 20 hrs. The cell culture supernatant SEAP reporter activity was determined using QUANTI-Blue™ kit (Cat.#: rep-qb1, Invivogen, San Diego, Ca, USA) at a wavelength of 640 nm, a detection medium that turns purple or blue in the presence of alkaline phosphatase.
HEK293-Blue-hTLR8 cells were incubated at a density of 250,000-450,000 cells/mL in a volume of 170 µL in a 96-well plate in Dulbecco's Modified Eagle's medium (DMEM) containing 4.5 g/L glucose, 50 U/mL penicillin, […], […], 2 mM L-glutamine, 10% (v/v) heat-inactivated fetal bovine serum with addition of 20 µL test compound in a serial dilution in the presence of final DMSO at 1% and 10 µL of 60uM R848 in above DMEM, perform incubation under 37 °C in a CO2 incubator for 20 hrs. Then 20 µL of the supernatant from each well was incubated with 180 µL Quanti-blue substrate solution at 37°C for 2 hrs and the absorbance was read at 620-655 nm using a spectrophotometer. The signaling pathway that TLR8 activation leads to downstream NF-κB activation has been widely accepted, and therefore similar reporter assay was modified for evaluating TLR8 antagonist.

IC50	Structure (SMILES)
9 nM	C[C@@H]1CN(c2ccc(C#N)c3ncccc23)C[C@H](CN2CCN(c3ccc4c(n3)[C@H](C)NC4)CC2)O1 (single isomer, unassigned) [Example 66]
20 nM	C[C@@H]1CN(c2ccc(C#N)c3ncccc23)C[C@H](CN2CCN(c3cnc4c(c3)CN[C@H]4C)CC2)O1 (single isomer, unassigned) [Example 67]
16 nM	C[C@@H]1CN(c2ccc(C#N)c3ncccc23)C[C@H](CN2CCN(c3cnc4c(c3)CN[C@@H]4C)CC2)O1 (single isomer, unassigned) [Example 68]
4 nM	C[C@@H]1Cc2cc(N3CCN(C[C@H]4CN(c5ccc(C#N)c6ncccc56)C[C@@H](C)O4)CC3)ncc2CN1 (single isomer, unassigned) [Example 70]
4 nM	C[C@@H]1CN(c2ccc(C#N)c3ncccc23)C[C@H](CN2CCN(c3cc4c(cn3)CN[C@@H](C)C4)CC2)O1 (single isomer, unassigned) [Example 71]
5 nM	C[C@@H]1CN(c2ccc(C#N)c3ncccc23)C[C@H](CN2CCN(c3cc4c(cn3)[C@H](C)NCC4)CC2)O1 (single isomer, unassigned) [Example 72]
7 nM	C[C@@H]1CN(c2ccc(C#N)c3ncccc23)C[C@H](CN2CCN(c3cc4c(cn3)[C@@H](C)NCC4)CC2)O1 (single isomer, unassigned) [Example 73]
4 nM	C[C@@H]1CN(c2ccc(C#N)c3ncccc23)C[C@H](CN2CCN(c3cc4c(cn3)CCN[C@@H]4C)CC2)O1 (single isomer, unassigned) [Example 74]
4 nM	C[C@@H]1CN(c2ccc(C#N)c3ncccc23)C[C@H](CN2CCN(c3cc4c(cn3)CCN[C@H]4C)CC2)O1 (single isomer, unassigned) [Example 75]
5 nM	C[C@@H]1CN(c2ccc(C#N)c3ncccc23)C[C@H](CN2CCN(c3cc4c(cn3)C[C@H](C)NC4)CC2)O1 (single isomer, unassigned) [Example 76]
7 nM	C[C@@H]1Cc2cnc(N3CCN(C[C@H]4CN(c5ccc(C#N)c6ncccc56)C[C@@H](C)O4)CC3)cc2CN1 (single isomer, unassigned) [Example 77]
2 nM	C[C@@H]1CN(c2ccc(C#N)c3nccnc23)C[C@H](CN2CCN(c3ccc4c(n3)CN[C@H]4C)CC2)O1 (single isomer, unassigned) [Example 78]
2 nM	C[C@@H]1CN(c2ccc(C#N)c3nccnc23)C[C@H](CN2CCN(c3ccc4c(n3)CN[C@@H]4C)CC2)O1 (single isomer, unassigned) [Example 79]
3 nM	C[C@@H]1CN(c2ccc(C#N)c3nccnc23)C[C@H](CN2CCN(c3cc4c(cn3)C[C@H](C)NC4)CC2)O1 (single isomer, unassigned) [Example 81]
3 nM	C[C@@H]1Cc2cnc(N3CCN(C[C@H]4CN(c5ccc(C#N)c6nccnc56)C[C@@H](C)O4)CC3)cc2CN1 (single isomer, unassigned) [Example 82]
2 nM	C[C@@H]1Cc2cc(N3CCN(C[C@H]4CN(c5ccc(C#N)c6nccnc56)C[C@@H](C)O4)CC3)ncc2CN1 (single isomer, unassigned) [Example 83]
2 nM	C[C@@H]1CN(c2ccc(C#N)c3nccnc23)C[C@H](CN2CCN(c3cc4c(cn3)CN[C@@H](C)C4)CC2)O1 (single isomer, unassigned) [Example 84]
2 nM	C[C@@H]1CN(c2ccc(C#N)c3nccnc23)C[C@H](CN2CCN(c3cc4c(cn3)[C@H](C)NCC4)CC2)O1 (single isomer, unassigned) [Example 85]

Further lines, the compound ahead of its results:

Structure (SMILES)	IC50
C[C@@H]1CN(c2ccc(C#N)c3ncccc23)C[C@H](CN2CCN(c3ccc4c(n3)CCNC4)C[C@H](O)C2)O1 (single isomer, unassigned) [Example 35A]	24 nM
C[C@@H]1CN(c2ccc(C#N)c3ncccc23)C[C@H](CN2CCN(c3ccc4c(n3)CCNC4)C[C@@H](O)C2)O1 (single isomer, unassigned) [Example 35B]	23 nM
C[C@@H]1CN(c2ccc(C#N)c3ncccc23)C[C@H](CN2C[C@H]3CN(c4ccc5c(n4)CCNC5)CC[C@@H]32)O1 (single isomer, unassigned) [Example 54]	22 nM
C[C@@H]1CN(c2ccc(C#N)c3ncccc23)C[C@H](CN2C[C@H]3CN(c4ccc5c(n4)CCNC5)CC[C@H]32)O1 (single isomer, unassigned) [Example 55]	16 nM
C[C@@H]1CN(c2ccc(C#N)c3ncccc23)C[C@H](CN2CCN(c3ccc4c(n3)CN[C@H]4C)CC2)O1 (single isomer, unassigned) [Example 63]	3 nM
C[C@@H]1CN(c2ccc(C#N)c3ncccc23)C[C@H](CN2CCN(c3ccc4c(n3)CN[C@@H]4C)CC2)O1 (single isomer, unassigned) [Example 64]	6 nM
C[C@@H]1CN(c2ccc(C#N)c3ncccc23)C[C@H](CN2CCN(c3ccc4c(n3)[C@@H](C)NC4)CC2)O1 (single isomer, unassigned) [Example 65]	9 nM
C[C@@H]1CN(c2ccc(C#N)c3ncccc23)C[C@H](CN2CC3[C@H](C2)OCCN3c2ccc3c(n2)CCNC3)O1 (stereo in doubt) [Example 53, cis-5-[(2R,6S)-2-methyl-6-[[4-(5,6,7,8-tetrahydro-1,6-naphthyridin-2-yl)-2,3,4a,5,7,7a-hexahydropyrrolo[3,4-b][1,4]oxazin-6-yl]methyl]morpholin-4-yl]quinoline-8-carbonitrile]	21 nM
C[C@@H]1CN(c2ccc(C#N)c3ncccc23)C[C@H](CN2CCN(c3cccc4c3CNC4)CC2)O1 [Example 2, 5-[(2S,6R)-2-[(4-isoindolin-4-ylpiperazin-1-yl)methyl]-6-methyl-morpholin-4-yl] quinoline-8-carbonitrile]	8 nM
C[C@@H]1CN(c2ccc(C#N)c3ncccc23)C[C@H](CN2CCN(c3ccc4c(c3)CNC4)[C@@H](CO)C2)O1 [Example 4, 5-[(2S,6R)-2-[[(3R)-3-(hydroxymethyl)-4-isoindolin-5-yl-piperazin-1-yl]methyl]-6-methyl-morpholin-4-yl]quinoline-8-carbonitrile]	27 nM
C[C@@H]1CN(c2ccc(C#N)c3ncccc23)C[C@H](CN2CCN(c3ccc4c(c3)CCNC4)CC2)O1 [Example 5, 5-[(2R,6S)-2-methyl-6-[[4-(1,2,3,4-tetrahydroisoquinolin-6-yl)piperazin-1-yl]methyl]morpholin-4-yl]quinoline-8-carbonitrile]	20 nM
C[C@@H]1CN(c2ccc(C#N)c3ncccc23)C[C@H](CN2CCN(c3ccc4c(c3)CNC4)CC2)O1 [Example 7, 5-[(2S,6R)-2-[(4-isoindolin-5-ylpiperazin-1-yl)methyl]-6-methyl-morpholin-4-yl] quinoline-8-carbonitrile]	30 nM
C[C@@H]1CN(c2ccc(C#N)c3ncsc23)C[C@H](CN2CCN(c3cnc4c(c3)CNC4)CC2)O1 [Example 8, 7-[(2S,6R)-2-[[4-(6,7-dihydro-5H-pyrrolo[3,4-b]pyridin-3-yl)piperazin-1-yl]methyl]-6-methyl-morpholin-4-yl]-1,3-benzothiazole-4-carbonitrile]	< 3 nM
